Laboratory results: patent US20130039871A1, “AQUEOUS COMPOSITION CONTAINED IN CONTAINER” (KAO CORPORATION, priority 2010, published 2013)

Assay: Test 1-3: water evaporation rate of aqueous composition in open dish
Assay type: physicochemical
Conditions: Test 2
Description: Five grams of each of samples 1 to 15 having components shown in Table 1 were placed in respective dishes having an opening area of 13.85 cm^2 and were left at a humidity of 30% and a temperature of 30° C. Changes in weight of each sample were measured 1, 3, 5, 7, 12, 18, and 24 hr later. The slope of the changes in weight, the n of nX+m (X represents time (hr)) calculated by a least-squares method, was defined as the water evaporation rate (unit: mg/h), and the absolute value thereof was plotted. The test was conducted three times for each sample, and the average value thereof was determined. Note that a lower water evaporation rate means higher inhibition of evaporation.
Changes in weight of samples 15 to 25 shown in Table 3 were measured under the same conditions as in Test 1, and water evaporation rates were determined.
Changes in weight of samples of Examples 1 to 7 and Comparative Examples 1 to 7 having components shown below were measured under the same conditions as in Test 1, and water evaporation rates were determined. In addition, viscosities at 25° C. were measured with a B-type viscometer (Vismetron viscometer: model VS-A1, Rotor No. 1, 12 rotations, 30 sec).

polyoxyethylene(2) behenyl ether [polyoxyethylene behenyl ether]
Amount showing a high water-evaporation inhibiting effect: ≥ 0.2 % by mass
Amount showing a water-evaporation inhibiting effect: ≥ 0.1 % by mass
